Results from ChEMBL document CHEMBL1201862, “PubChem BioAssay data set” (2004).
The source made the active and inactive calls.

What was measured:
[1] = target: T1, Bcl-2-like protein 10 (Homo sapiens, UniProt Q9HD36); test: displacers of TR3 peptide from Bcl-B, primary screen, selectivity assay for Bfl-1 inhibitor project, biochemical, fluorescence polarization, FITC-TR3 peptide (AID 748);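 note: fluorescence polarization from a fluorescein-labelled TR3 peptide binding purified Bcl-B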
T1 sequence (Q9HD36 whole entry): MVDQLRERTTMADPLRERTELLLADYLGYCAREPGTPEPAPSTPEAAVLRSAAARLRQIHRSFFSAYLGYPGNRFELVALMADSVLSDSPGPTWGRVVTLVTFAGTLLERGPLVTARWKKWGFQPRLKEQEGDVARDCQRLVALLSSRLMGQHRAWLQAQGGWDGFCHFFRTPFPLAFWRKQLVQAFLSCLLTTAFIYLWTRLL

[2] = target: Beta-2 adrenergic receptor (Homo sapiens, UniProt P07550); test: beta2AR agonists driving receptor internalization, dose response, cell-based, FAP fluorogen, flow cytometry, cherry pick 1 (AID 588763); type: functional
[3] = cells; type: functional
[4] = THP-1 cell cytotoxicity, dose response, cytotoxicity control for non-replicating M. tuberculosis project (AID 489025); type: functional
[5] = Vero E6 cell cytotoxicity, dose response, cytotoxicity control for non-replicating M. tuberculosis project, secondary assay (AID 492998); type: functional, VeroE6; conditions: Vero C1008
[6] = HepG2 cell cytotoxicity, dose response, cytotoxicity control for non-replicating M. tuberculosis project (AID 489018); type: functional; conditions: Mycobacterium tuberculosis
[7] = Luminescence Cell-Based Dose Retest to Confirm Inhibitors of Cancer Stem Cells. [Related pubchem assays (depositor defined):AID2717, AID2721]; type: functional; conditions: Homo sapiens
[8] = target: T2, Ubiquitin-conjugating enzyme E2 N (Homo sapiens, UniProt P61088); type: functional
T2 sequence (P61088 whole entry): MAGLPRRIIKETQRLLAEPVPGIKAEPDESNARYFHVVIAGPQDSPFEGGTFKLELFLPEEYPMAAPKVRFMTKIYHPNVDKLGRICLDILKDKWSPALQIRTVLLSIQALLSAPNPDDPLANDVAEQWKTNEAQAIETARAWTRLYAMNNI

[9] = MC4R antagonists, dose response, counter-screen for LGR2 antagonist project, cell-based, plate reader, cherry pick (AID 743444); type: functional;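 note: transfected HEK 293 cells stimulated with alpha-MSH peptide; potency of inhibitors of the alpha-MSH evoked signal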
[10] = HEK293 cell cytotoxicity, dose response, cytotoxicity control, plate reader, cherry-picked samples (AID 743446); type: functional, cell-based
[11] = HepG2 cell cytotoxicity, dose response, cytotoxicity control, plate reader, cherry-pick, antagonist series (AID 743416); type: functional, cell-based
[12] = target: T2, Ubiquitin-conjugating enzyme E2 N; type: functional; remark: listed apart in the source
[13] = target: Neurotensin receptor type 1 (Homo sapiens, UniProt P30989); type: functional;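 note: Image-based confirmatory dose-response assay measuring agonist activity at NTR1; NTR1-expressing U2OS osteosarcoma cells imaged for beta-arrestin GFP spot formation; agonist potency where compounds increase beta-arrestin recruitment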
[14] = A549 cell cytotoxicity, dose response, cytotoxicity control, plate reader, cherry-pick, antagonist series (AID 743412); type: functional, cell-based
[15] = target: T3, Bcl-2-related protein A1 (Mus musculus, UniProt Q07440); type: functional;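 note: confirmatory dose–response counterscreen on Bfl-1, used to check hits from a UBC13 polyubiquitin inhibitor campaign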
T3 sequence (Q07440 whole entry): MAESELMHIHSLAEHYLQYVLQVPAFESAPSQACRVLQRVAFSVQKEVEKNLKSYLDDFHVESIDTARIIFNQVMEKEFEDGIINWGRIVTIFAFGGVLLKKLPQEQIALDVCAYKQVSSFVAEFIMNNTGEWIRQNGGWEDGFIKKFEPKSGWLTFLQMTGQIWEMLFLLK

[16] = LGR2 antagonists, dose response, cell-based, HEK293, CRE-luciferase reporter, cherry pick, set 2 (AID 743343); type: functional;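 note: transfected cells were stimulated with diluted bursicon conditioned medium after compound addition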
[17] = system: HEK293; test: cells; type: functional, cell-based; conditions: Homo sapiens
[18] = inhibitors of firefly luciferase expression or activity, dose response, H4 neuroglioma cells, luminescence (AID 1990); type: functional, cell-based
[19] = system: HEK293; test: NOD1 signaling inhibitors, primary screen, cell-based, luminescence, uHTS (AID 1578); type: functional; conditions: Homo sapiens
[20] = Luminescence Cell-Based Dose Response HTS to Identify Inhibitors of 5'UTR Stem-Loop Driven Prion Protein mRNA Translation in H4 Neuroglioblastoma Cells. [Related pubchem assays: 1827 (Project Summary), 1813 (Primary HTS)]; type: functional
[21] = target: T4, Nucleotide-binding oligomerization domain-containing protein 2 (Homo sapiens, UniProt Q9HC29); test: NOD2 signaling inhibitors, cell-based, luminescence, uHTS, HEK293 (AID 1566); type: functional
[22] = inhibitors of SNCA 5'UTR-driven reporter translation, confirmation, H4 neuroglioma cells, luminescence (AID 1988); type: functional, cell-based
[23] = inhibitors of intracellular T. cruzi replication, confirmation, NIH3T3 host cells, beta-gal luminescence (AID 2044); type: functional, cell-based;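 note: intracellular parasites grown in NIH/3T3 mouse fibroblasts as host cells; luminescent beta-galactosidase reporter signal from transgenic T. cruzi replicating inside host cells; inhibitors lower the luminescence signal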
[24] = system: HEK293; test: cells; type: functional, cell-based; conditions: Homo sapiens; remark: listed apart in the source
[25] = system: HEK293; test: cells; conditions: Homo sapiens
[26] = target: T4, Nucleotide-binding oligomerization domain-containing protein 2; test: PubChem AID 2334; type: functional
[27] = system: HEK293; test: cells; type: functional, cell-based; conditions: Homo sapiens; remark: listed apart in the source
[28] = target: T5, Nucleotide-binding oligomerization domain-containing protein 1 (Homo sapiens, UniProt Q9Y239); test: NOD1 signaling inhibitors, SAR follow-up, revised (AID 2333); type: functional
T5 sequence (Q9Y239 whole entry): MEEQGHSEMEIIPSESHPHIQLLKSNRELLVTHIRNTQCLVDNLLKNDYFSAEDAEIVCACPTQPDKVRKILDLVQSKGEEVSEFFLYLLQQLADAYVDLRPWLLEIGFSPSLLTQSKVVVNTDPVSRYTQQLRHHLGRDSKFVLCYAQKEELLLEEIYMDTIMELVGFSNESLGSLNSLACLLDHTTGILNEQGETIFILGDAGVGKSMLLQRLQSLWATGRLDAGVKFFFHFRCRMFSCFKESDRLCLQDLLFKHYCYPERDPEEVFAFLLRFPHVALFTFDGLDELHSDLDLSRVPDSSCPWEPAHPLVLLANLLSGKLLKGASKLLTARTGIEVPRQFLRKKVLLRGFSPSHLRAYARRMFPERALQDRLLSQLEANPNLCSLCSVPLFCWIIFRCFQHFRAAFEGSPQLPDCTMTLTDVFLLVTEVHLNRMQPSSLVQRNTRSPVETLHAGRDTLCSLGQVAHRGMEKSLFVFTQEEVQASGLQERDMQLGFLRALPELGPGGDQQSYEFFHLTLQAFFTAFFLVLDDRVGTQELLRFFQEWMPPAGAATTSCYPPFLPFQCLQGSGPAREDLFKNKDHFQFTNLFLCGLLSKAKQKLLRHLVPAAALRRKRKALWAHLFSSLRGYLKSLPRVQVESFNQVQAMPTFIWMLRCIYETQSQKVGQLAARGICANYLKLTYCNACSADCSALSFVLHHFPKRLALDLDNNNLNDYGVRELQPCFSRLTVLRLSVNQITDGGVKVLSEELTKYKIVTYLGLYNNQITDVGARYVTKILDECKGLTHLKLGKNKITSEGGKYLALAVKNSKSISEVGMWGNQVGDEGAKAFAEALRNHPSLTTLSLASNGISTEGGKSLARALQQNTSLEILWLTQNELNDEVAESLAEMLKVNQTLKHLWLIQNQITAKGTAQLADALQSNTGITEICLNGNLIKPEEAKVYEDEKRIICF

[29] = cytotoxicity toward NIH3T3 fibroblasts, dose response, counter-screen, cell-based, ATP luminescence, mouse fibroblasts (AID 2010); type: functional;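 note: cells exposed to compound for about 90 hours before reading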
[30] = system: HEK293; test: NOD2 signaling inhibitors in MDP-stimulated cells, cell-based, uHTS, luminescence (AID 2001); type: functional; conditions: Homo sapiens
[31] = target: Tumor necrosis factor (Homo sapiens, UniProt P01375); test: TNFa-triggered NF-kB activation inhibitors, SAR follow-up, cell-based, revised (AID 2337); type: functional
[32] = cytotoxicity in HEK-293T cells, dose response, cytotoxicity control for BCR NF-kB inhibitor project, luminescence, B-cell screen hits (AID 489021); type: functional, cell-based;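 note: HEK-293T cells carrying an NF-kB luciferase reporter; cells exposed to compound for about 14 hours before viability readout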
[33] = system: Vero; test: cells; type: functional, cell-based; conditions: Chlorocebus sabaeus
[34] = target: Beta-galactosidase (Escherichia coli, UniProt Q8VNN2); test: beta-galactosidase enzyme inhibitors and activators, dose response, artefact control for CCR6 antagonist project, biochemical, E. coli enzyme, set 3 (AID 504712); type: functional
[35] = target: T6, Hexokinase HKDC1 (Homo sapiens, UniProt Q2TB90); test: HKDC1 hexokinase inhibitors, dose response, biochemical, W721R variant (AID 504729); type: functional
T6 sequence (Q2TB90 whole entry): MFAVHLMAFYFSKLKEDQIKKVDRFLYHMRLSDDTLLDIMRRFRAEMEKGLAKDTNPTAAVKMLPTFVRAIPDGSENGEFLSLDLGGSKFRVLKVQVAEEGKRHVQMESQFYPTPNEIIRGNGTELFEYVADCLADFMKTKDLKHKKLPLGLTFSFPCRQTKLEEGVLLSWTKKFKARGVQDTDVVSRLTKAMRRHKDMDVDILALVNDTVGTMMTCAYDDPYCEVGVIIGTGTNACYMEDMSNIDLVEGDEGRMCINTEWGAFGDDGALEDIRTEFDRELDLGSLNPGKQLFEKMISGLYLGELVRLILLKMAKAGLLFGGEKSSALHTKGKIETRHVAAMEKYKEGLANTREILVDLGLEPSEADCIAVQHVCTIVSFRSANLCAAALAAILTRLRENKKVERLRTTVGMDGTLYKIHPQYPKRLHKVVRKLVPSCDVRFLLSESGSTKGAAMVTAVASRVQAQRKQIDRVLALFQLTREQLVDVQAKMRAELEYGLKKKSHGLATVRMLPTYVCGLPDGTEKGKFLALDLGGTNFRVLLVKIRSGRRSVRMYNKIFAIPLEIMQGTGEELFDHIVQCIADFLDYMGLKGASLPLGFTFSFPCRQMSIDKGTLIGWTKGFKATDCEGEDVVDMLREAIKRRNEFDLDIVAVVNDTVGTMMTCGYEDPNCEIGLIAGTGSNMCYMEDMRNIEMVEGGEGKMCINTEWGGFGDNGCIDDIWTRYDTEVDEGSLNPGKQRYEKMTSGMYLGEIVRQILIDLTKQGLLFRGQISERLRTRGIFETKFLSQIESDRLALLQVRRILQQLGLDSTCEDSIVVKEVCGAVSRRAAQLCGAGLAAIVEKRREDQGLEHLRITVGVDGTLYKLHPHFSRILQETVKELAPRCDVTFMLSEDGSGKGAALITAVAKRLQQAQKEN

[36] = control 3'UTR Renilla luciferase suppression, dose response, counter-screen for Shn3 inhibitor project, cell-based, Clone20-Shn3RL, cherry-picked (AID 624133); type: functional
[37] = Shn3 3'UTR reporter inhibitors, dose response, cell-based, Clone20 osteoblasts, firefly luciferase, cherry-picked (AID 624132); type: functional;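 note: firefly luciferase luminescence from reporter carrying the Shn3 3'UTR in osteoblasts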
[38] = HepG2 cell cytotoxicity, dose response, cytotoxicity control for Shn3 inhibitor project, CellTiter-Glo, cherry-picked (AID 624134); type: functional, cell-based

T4 sequence (Q9HC29 whole entry, the tested form may be a part): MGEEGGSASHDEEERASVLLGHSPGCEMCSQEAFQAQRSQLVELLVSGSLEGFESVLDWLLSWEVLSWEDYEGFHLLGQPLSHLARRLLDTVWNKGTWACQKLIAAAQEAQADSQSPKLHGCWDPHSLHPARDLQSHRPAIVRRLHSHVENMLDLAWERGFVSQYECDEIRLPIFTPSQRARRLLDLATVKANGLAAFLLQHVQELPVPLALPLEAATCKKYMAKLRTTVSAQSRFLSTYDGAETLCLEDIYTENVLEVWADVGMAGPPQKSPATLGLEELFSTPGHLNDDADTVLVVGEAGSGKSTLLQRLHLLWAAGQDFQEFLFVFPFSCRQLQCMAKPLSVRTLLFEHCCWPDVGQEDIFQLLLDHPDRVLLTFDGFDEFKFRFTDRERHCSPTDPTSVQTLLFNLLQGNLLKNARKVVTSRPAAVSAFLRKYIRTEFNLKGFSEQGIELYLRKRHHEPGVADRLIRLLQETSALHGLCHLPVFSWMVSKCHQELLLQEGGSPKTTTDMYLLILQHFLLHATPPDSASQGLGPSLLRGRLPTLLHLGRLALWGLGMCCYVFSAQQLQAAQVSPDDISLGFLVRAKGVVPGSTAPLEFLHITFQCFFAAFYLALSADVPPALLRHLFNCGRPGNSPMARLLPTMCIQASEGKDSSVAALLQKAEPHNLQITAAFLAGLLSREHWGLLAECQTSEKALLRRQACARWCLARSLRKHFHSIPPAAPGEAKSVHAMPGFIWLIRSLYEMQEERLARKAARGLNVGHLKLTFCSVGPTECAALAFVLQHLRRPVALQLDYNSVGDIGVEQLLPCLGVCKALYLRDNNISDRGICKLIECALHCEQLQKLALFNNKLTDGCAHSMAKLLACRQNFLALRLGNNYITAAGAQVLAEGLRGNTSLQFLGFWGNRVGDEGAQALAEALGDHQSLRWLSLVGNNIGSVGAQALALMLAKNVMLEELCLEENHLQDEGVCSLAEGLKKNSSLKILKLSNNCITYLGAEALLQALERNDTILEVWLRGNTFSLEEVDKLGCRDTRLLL
Beta-2 adrenergic receptor, sequence (P07550 whole entry): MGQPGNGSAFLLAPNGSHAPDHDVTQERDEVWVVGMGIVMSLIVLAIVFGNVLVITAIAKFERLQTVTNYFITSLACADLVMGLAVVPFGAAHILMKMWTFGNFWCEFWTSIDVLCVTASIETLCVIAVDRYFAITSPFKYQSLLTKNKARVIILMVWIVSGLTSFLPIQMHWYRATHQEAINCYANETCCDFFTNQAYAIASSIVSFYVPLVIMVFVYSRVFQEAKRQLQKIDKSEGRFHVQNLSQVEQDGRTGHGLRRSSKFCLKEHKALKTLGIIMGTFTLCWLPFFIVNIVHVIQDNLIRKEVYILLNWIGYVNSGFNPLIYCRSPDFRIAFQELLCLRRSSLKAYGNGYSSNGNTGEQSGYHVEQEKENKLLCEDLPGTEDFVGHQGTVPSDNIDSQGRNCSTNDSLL
Tumor necrosis factor, sequence (P01375 whole entry): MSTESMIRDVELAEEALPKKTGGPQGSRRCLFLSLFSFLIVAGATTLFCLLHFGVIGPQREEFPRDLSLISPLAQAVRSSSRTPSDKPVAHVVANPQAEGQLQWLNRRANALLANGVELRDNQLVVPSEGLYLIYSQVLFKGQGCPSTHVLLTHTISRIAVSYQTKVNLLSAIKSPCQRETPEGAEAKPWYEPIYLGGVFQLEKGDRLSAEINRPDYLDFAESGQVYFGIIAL
Beta-galactosidase, sequence (Q8VNN2 whole entry): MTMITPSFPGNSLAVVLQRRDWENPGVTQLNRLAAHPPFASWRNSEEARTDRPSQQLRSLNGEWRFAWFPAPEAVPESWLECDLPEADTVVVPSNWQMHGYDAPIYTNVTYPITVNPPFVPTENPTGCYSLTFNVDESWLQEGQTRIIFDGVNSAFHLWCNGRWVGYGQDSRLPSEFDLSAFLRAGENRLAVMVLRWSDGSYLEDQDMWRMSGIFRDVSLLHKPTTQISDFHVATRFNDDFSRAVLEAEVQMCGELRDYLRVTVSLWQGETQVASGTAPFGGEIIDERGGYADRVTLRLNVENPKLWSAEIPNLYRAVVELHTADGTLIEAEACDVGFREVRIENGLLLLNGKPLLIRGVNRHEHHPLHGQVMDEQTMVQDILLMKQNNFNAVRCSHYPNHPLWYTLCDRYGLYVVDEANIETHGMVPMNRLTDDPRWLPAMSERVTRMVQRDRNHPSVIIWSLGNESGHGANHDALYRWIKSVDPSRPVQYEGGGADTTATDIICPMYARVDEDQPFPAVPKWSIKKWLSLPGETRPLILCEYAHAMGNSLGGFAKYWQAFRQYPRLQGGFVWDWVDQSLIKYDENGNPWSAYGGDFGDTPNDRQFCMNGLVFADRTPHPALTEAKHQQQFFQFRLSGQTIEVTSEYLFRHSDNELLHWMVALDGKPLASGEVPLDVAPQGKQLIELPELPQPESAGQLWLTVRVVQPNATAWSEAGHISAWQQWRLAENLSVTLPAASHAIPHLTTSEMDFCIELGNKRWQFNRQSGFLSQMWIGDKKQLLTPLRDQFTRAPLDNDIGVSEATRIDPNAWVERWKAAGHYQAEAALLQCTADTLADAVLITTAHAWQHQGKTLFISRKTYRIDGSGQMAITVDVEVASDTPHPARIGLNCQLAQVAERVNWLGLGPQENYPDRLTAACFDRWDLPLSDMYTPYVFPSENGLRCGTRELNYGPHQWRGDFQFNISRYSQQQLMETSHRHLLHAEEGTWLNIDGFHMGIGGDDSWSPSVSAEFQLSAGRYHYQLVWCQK
Neurotensin receptor type 1, sequence (P30989 whole entry): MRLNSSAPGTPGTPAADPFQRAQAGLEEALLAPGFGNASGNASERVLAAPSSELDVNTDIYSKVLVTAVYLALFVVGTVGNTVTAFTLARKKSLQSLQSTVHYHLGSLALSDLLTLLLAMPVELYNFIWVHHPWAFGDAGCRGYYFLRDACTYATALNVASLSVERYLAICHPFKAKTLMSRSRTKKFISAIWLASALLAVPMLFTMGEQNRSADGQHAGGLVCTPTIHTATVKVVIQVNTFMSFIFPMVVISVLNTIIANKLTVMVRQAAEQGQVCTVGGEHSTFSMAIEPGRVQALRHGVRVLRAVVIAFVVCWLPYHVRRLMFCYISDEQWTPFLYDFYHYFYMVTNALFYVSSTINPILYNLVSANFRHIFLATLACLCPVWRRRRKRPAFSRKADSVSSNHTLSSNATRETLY

O=C(CCCCCn1c(=S)[nH]c2ccccc2c1=O)NCc1ccc2c(c1)OCO2
inactive: IC50 [1] > 100 µM
active: EC50 [2] 0.0077 µM

COc1cc(CNCCc2c[nH]c3ccccc23)ccc1OCc1ccc(F)cc1
inactive: IC50 [1] > 100 µM | EC50 [2] 36.7 µM
active: IC50 [3] 10.7 µM | CC50 [4] 12 µM | CC50 [5] 11.3 µM | CC50 [6] 8 µM | AC50 [7] 5 µM

CCOC(=O)/C(=C\c1cccc(O)c1)c1nc(O)c2c(C)c(C)sc2n1
active: AC50 [9] 24.5 µM | AC50 [10] 22.8 µM | AC50 [11] 13.5 µM | IC50 [12] 16.4 µM | EC50 [13] 6.59 µM | AC50 [14] 20.3 µM | AC50 [16] 12.9 µM
inactive: IC50 [8] > 20 µM | IC50 [15] > 20 µM

CCCCCn1c(=O)c(C(=O)Nc2ccccc2S(N)(=O)=O)c(O)c2ccccc21
> 120 µM (not active): EC50 [18] | EC50 [20]
> 30 µM (not active): EC50 [29]
active: EC50 [19] 6.17 µM | EC50 [21] 5.7 µM | EC50 [22] 9.08 µM | EC50 [23] 2.07 µM | IC50 [26] 6.92 µM | IC50 [28] 5.88 µM | IC50 [30] 8.2 µM | IC50 [31] 3.44 µM
inactive: IC50 [17] > 20 µM | IC50 [24] > 20 µM | IC50 [25] > 20 µM | IC50 [27] > 20 µM

COc1ccc(-c2ccc(OC)c([C@H]3[C@H]4C=CC[C@@H](C)[C@@H]4C(=O)N3Cc3ccccc3)c2)cc1
inactive: IC50 [32] > 80 µM

Cc1ccc2c(c1)CCCN2S(=O)(=O)c1cccc(C(=O)Nc2ccccc2C(=O)O)c1
inactive: IC50 [17] > 20 µM | IC50 [24] > 20 µM | IC50 [25] > 20 µM | IC50 [27] > 20 µM | IC50 [30] 15.9 µM
active: EC50 [19] 9.32 µM | EC50 [21] 4.45 µM | EC50 [23] 4.95 µM | IC50 [26] 12.6 µM | IC50 [33] > 25 µM | IC50 [28] 9.05 µM | EC50 [29] 4.22 µM | IC50 [31] 7.52 µM

COC(=O)c1ccc(CCc2cc(O)c(Br)cc2O)cc1
inactive: IC50 [34] > 66.6 µM
active: IC50 [35] 6.54 µM

Cn1nnnc1Sc1ncnc2scc(Br)c12
active: AC50 [36] 12.5 µM | AC50 [37] 6.51 µM | AC50 [7] 2.12 µM | AC50 [38] 39 µM
inactive: IC50 [32] > 80 µM
